This is an account of results in US9828386B2 (priority 2013, dated 2017).

The structures appear in SMILES notation. Like-named read-outs stand apart in the source and are kept apart here.

Common to all, as to assay: cells
Assay type in all cases: cell-based

For one assay, the system named is BGC823 cell line. The following applies: read-out: IC50 (μM) BGC823. Here is the method: (§1) Test of compounds of embodiment of the present invention on inhibiting tumor cell activity
(§2) 3, cell lines: A549, BGC823, Hela cell line and normal human hepatocytes which are available from Wu Han boster Co., Ltd.;
(§3) A549, BGC823, Hela cell line and normal human hepatocytes in logarithmic growth phase are subjected to 1000 rpm centrifugation for 5 min, supernatant is then discarded, moderate medium is suspended, the cell concentration is adjusted to 3.5×10^4/well, the cells were seeded in 96-wells culture plate, and following experimental groups are set:
(§4) a negative control group; 35 test groups with same concentration (ie: groups of Compound (1) to Compound (35)); three control groups: groups of podophyllotoxin, 4′-demethylepipodophyllotoxin and etoposide.
(§5) Taking RPMI1640 containing 10% of calf serum as nutrient solution, 0.10 mL of cells per well is incubated under conditions of 37° C., 5% CO2 and saturated humidity for 24 h to nearly be covered, then the nutrient solution is discarded. […] 100 μl of DMSO is added to each well, then vibrated at 37° C. by shaker table for 30 min, then measuring absorbance (OD) at 492 nm, calculating MTT ratio=OD value of drug group/OD value of the negative control group.

The next assay relates to Hela cell line. The following applies: read-out: IC50 (μM) Hela. Here is the method: as §1, §2, §3, §4, §5
For a further assay, the system named is A549 cell line. The following applies: read-out: IC50 (μM) A549. The procedure: as §1, §2, §3, §4, §5
Where [1] appears, read: BGC823 cells, MTT, 48 h cultivation.
Setting [2] is: Hela cells, MTT, 48 h cultivation.
The mark [3] stands for this setting: A549 cells, MTT, 48 h cultivation.

As to `COc1cc(C2c3cc4c(cc3C(Sc3nc(C)cc(C)n3)C3COC(=O)C23)OCO4)cc(OC)c1O` (stereo not drawn) [Compound 28, 4-S-(4,6-dimethyl-pyrimidine-2)-4-deoxy-4′-demethylepipodophyllotoxin], the IC50 in the assay on BGC823 cell line (setting [1]) was 4.29 ± 0.83 µM; with Hela cell line (setting [2]) it was 5.26 ± 0.62 µM; with A549 cell line (setting [3]) it was 1.27 ± 1.12 µM.

For the molecule `COc1cc(C2c3cc4c(cc3C(Sc3nc5ccccc5s3)C3COC(=O)C23)OCO4)cc(OC)c1O` (stereo not drawn) [Compound 29, 4-S-(benzothiazol-2)-4-deoxy-4′-demethylepipodophyllotoxin], the IC50 was 1.37 ± 0.43 µM in the assay with BGC823 cell line (setting [1]), 4.57 ± 0.16 µM in the assay on Hela cell line (setting [2]) and 0.85 ± 0.93 µM in the assay with A549 cell line (setting [3]).

On to `COc1cc(C2c3cc4c(cc3C(Sc3nc5ccccc5[nH]3)C3COC(=O)C23)OCO4)cc(OC)c1O` (stereo not drawn) [Compound 30, 4-S-(benzimidazole-2)-4-deoxy-4′-demethylepipodophyllotoxin], for which the values for the IC50 in the assay with BGC823 cell line (setting [1]), with Hela cell line (setting [2]) and with A549 cell line (setting [3]) were 0.31 ± 0.16 µM, 0.51 ± 0.13 µM and 1.24 ± 0.27 µM, respectively.

As for `COc1cc(C2c3cc4c(cc3C(Sc3nc5ccccc5o3)C3COC(=O)C23)OCO4)cc(OC)c1O` (stereo not drawn) [Compound 31, 4-S-(benzoxazole-2)-4-deoxy-4′-demethylepipodophyllotoxin], the IC50 in the assay on BGC823 cell line (setting [1]) turned out to be 1.36 ± 0.2 µM; with Hela cell line (setting [2]), 0.13 ± 0.01 µM; in the assay on A549 cell line (setting [3]) it was 1.46 ± 0.89 µM.

Take `COc1cc(C2c3cc4c(cc3C(Sc3n[nH]c(NS(=O)(=O)c5ccc(C)cc5)n3)C3COC(=O)C23)OCO4)cc(OC)c1O` (stereo not drawn) [Compound 32, 4-S-[3-N-(4-methyl-benzenesulfonamide-)-1,2,4-triazole-5-]-4-deoxy-4′-demethylepipodophyllotoxin]: the IC50 in the assay on BGC823 cell line (setting [1]) was found to be 0.67 ± 0.22 µM; with Hela cell line (setting [2]), 0.53 ± 0.17 µM; with A549 cell line (setting [3]), 1.67 ± 0.28 µM.

In the case of `COc1ccc(S(=O)(=O)Nc2nc(SC3c4cc5c(cc4C(c4cc(OC)c(O)c(OC)c4)C4C(=O)OCC34)OCO5)n[nH]2)cc1` (stereo not drawn) [Compound 33, 4-S-[3-N-(4-methoxy-benzenesulfonamide-)-1,2,4-triazole-5-]-4-deoxy-4′-demethylepipodophyllotoxin], the IC50 in the assay on BGC823 cell line (setting [1]) was 1.27 ± 0.53 µM; with Hela cell line (setting [2]) it was 1.56 ± 0.88 µM; in the assay on A549 cell line (setting [3]), 1.37 ± 2.15 µM.

As to `COc1cc(C2c3cc4c(cc3C(Sc3nnc(NS(=O)(=O)c5ccc(C)cc5)s3)C3COC(=O)C23)OCO4)cc(OC)c1O` (stereo not drawn) [Compound 34, 4-S-[2-N-(4-methyl-benzenesulfonamide-)-1,3,4-thiadiazole-5-]-4-deoxy-4′-demethylepipodophyllotoxin], the figures for the IC50 with BGC823 cell line (setting [1]), with Hela cell line (setting [2]) and in the assay with A549 cell line (setting [3]) were 0.85 ± 0.43 µM, 2.11 ± 0.34 µM and 5.89 ± 0.74 µM, respectively.

In the case of `COc1ccc(S(=O)(=O)Nc2nnc(SC3c4cc5c(cc4C(c4cc(OC)c(O)c(OC)c4)C4C(=O)OCC34)OCO5)s2)cc1` (stereo not drawn) [Compound 35, 4-S-[2-N-(4-methoxy-benzenesulfonamide-)-1,3,4-thiadiazole-5-]-4-deoxy-4′-demethylepipodophyllotoxin], the IC50 turned out to be 2.23 ± 0.69 µM in the assay on BGC823 cell line (setting [1]), 1.19 ± 0.57 µM in the assay with Hela cell line (setting [2]) and 0.84 ± 0.62 µM with A549 cell line (setting [3]).

On to `COc1cc([C@@H]2c3cc4c(cc3[C@H](O)[C@H]3COC(=O)[C@H]23)OCO4)cc(OC)c1OC` [podophyllotoxin, reference compound], for which the IC50 came to 75.81 ± 0.73 µM in the assay with BGC823 cell line (Homo sapiens, BGC-823, 48 h); 55.53 ± 0.24 µM in the assay with Hela cell line (Homo sapiens, HeLa, 48 h); 67.18 ± 0.24 µM with A549 cell line (Homo sapiens, A549, 48 h).

The IC50 is the concentration at which inhibition is half-maximal.
